Laboratory results published in US20240327364A1, “THERAPEUTIC TARGETING OF GPR68 TO INDUCE FERROPTOSIS” (University Of Maryland, Baltimore, priority 2023, published 2024).
Where two headings read alike, the source gives them in different places.

Assays:
HCT 116 = experiment: Cell Titer-Glo viability, Colorectal adenocarcinoma; type: cell-based; settings: 72 hours
Method: (§1) OGM2 kills wide variety of cancer cell types. Cell sensitivity can be classified in to Very Sensitive (LC50<2 μM), Sensitive (LC50=2 to 10 μM), Mildly Sensitive (LC50>10 μM), and Refractory (no killing at 10 μM). The listed established cell were incubated with OGM2 at 2 μM or 10 μM for 72 hours under standard cell culture conditions, and relative cell number was assessed using Cell Titer-Glo Luminescent Cell Viability Assay (Promega™) following the manufacturer's instructions. Luminescence was determined using a Cytation 5 reader and Gen5 software package (BioTek™).
(§2) Cancer cells, which are very sensitive to killing by OGM2 (LCs <2 μM), with reported mRNA expression of GPR68 and the related proton sensing receptor GPR4. LC50's (concentrations causing 50% lethality) were determined using CellTiter-Glo (Promega™, G7570). Cells were plated in 12-well plates (CELLTREAT Scientific Products, 229112) in 1 ml of DMEM with high glucose, GlutaMAX, HEPES, or RPMI 1640 with Penicillin-Streptomycin (ThermoFisher™, 10564029, 11875119 and 15140122) and 10% FBS. Cells were incubated overnight at 37° C. in 5% CO2. Then 1 mL of fresh media was added with DMSO, OGM, or positive control (Erastin; APExBIO Technology, LLC, B1524) and cells incubated for 3 days. On the third day, all media was removed, cells were rinsed with 1×PBS, PBS was removed, and 200 μL of 1× Passive Lysis Buffer (Promega™, E1941) was added to each well. […]. Subsequently, 20 μL of lysate was added to 100 μL CellTiter-Glo™ reagent on a LUMITRAC 200 plate (Greiner™ bio-one, 82050-726). Plates were briefly spun down and read on a GloMax-Multi Detection System (Promega™).
(§3) The cells listed in the tables above were incubated with OGM2 at 2 μM or 10 μM for 72 hours under standard cell culture conditions, and relative cell number was assessed using Cell Titer-Glo Luminescent Cell Viability Assay (Promega™) following the manufacturer's instructions. Luminescence was determined using a Cytation 5 reader and Gen5 software package (BioTek™). RNA expression of GPR68 and GPR4 in the corresponding cancer cell lines are listed, according to the publicly available The Human Protein Atlas version 22.0 and Ensembl version 103.38 (see proteinatlas.org). The consensus normalized expression value (“nTPM”=normalize transcript per million) was calculated as the maximum nTPM value for each gene in the two data sources.

RKO = experiment: as above; type: cell-based
Method: as §1, §2, §3

CDK5 = target: T1, CDK5 (Homo sapiens, UniProt Q00535); experiment: KinomeScan; type: binding; settings: read-out: % Control
T1 construct: purchased DiscoveRx (KinomeScan service)

DAPK3 = target: T2, DAPK3 (Homo sapiens, UniProt O43293); experiment: KinomeScan; type: binding; settings: read-out: % Control
T2 construct: purchased DiscoveRx (Fremont, CA), KinomeScan service

HIPK2 = target: T3, HIPK2 (Homo sapiens, UniProt Q9H2X6); experiment: KinomeScan; type: binding; settings: read-out: % Control
T3 construct: purchased DiscoveRx (Fremont, CA)

LTK = target: T4, LTK (Homo sapiens, UniProt P29376); experiment: KinomeScan; type: binding; settings: read-out: % Control
T4 construct: purchased DiscoveRx

MAP4K5 = target: T5, MAP4K5 (Homo sapiens, UniProt Q9Y4K4); experiment: KinomeScan; type: binding; settings: read-out: % Control
T5 construct: purchased DiscoveRx (Fremont, CA)

MLCK = target: T6, MLCK (Homo sapiens, UniProt Q32MK0); experiment: KinomeScan; type: binding; settings: read-out: % Control
T6 construct: purchased DiscoveRx

PIM2 = target: T7, PIM2 (Homo sapiens, UniProt Q9P1W9); experiment: KinomeScan; type: binding; settings: read-out: % Control
T7 construct: purchased DiscoveRx (Fremont, CA)

CDC2L5 = target: T8, CDC2L5 (Homo sapiens, UniProt Q14004); experiment: KinomeScan; type: binding; settings: read-out: % Control
T8 construct: purchased DiscoveRx (KinomeScan service)
Method: (§4) GPCR profiling assays were performed by Millipore (St. Louis, MO) using in cells expressing Gα15, a promiscuous G protein that enhances GPCR coupling to downstream Ca2+ signaling pathways. KinomeScan was conducted by DiscoveRx (Fremont, CA).
(§5) To identify the target of OGM1, the molecule was profiled for binding in a panel of 442 kinases (KinomeScan™, DiscoveRx™) and assessed its activity against 158 GPCRs in a single-point assay in Chem-1 cells that uses a promiscuous Gα15 protein to trigger calcium flux (see Table 9 and Table 10, below). […] Table 9. KinomeScan (DiscoverRx) profiling of OGM1.

PRP4 = target: T9, PRP4 (Homo sapiens, UniProt Q13523); experiment: KinomeScan; type: binding; settings: read-out: % Control
T9 construct: purchased DiscoveRx (Fremont, CA)
Method: as §4, §5

TLK1 = target: T10, TLK1 (Homo sapiens, UniProt Q9UKI8); experiment: KinomeScan; type: binding; settings: read-out: % Control
T10 construct: purchased DiscoveRx (Fremont, CA)

TNK1 = target: T11, TNK1 (Homo sapiens, UniProt Q13470); experiment: KinomeScan; type: binding; settings: read-out: % Control
T11 construct: purchased DiscoveRx (Fremont, CA)

ADRA1A = target: T12, ADRA1A (Homo sapiens, UniProt P35348); experiment: GPCR Profiler; type: cell-based
T12 construct: host or cells: Chem-1 cells with promiscuous Gα15

CCR5 = target: T13, CCR5 (Macaca mulatta, UniProt P61813); experiment: GPCR Profiler; type: cell-based
T13 construct: host or cells: Chem-1 cells with Gα15

CCR6 = target: T14, CCR6 (Homo sapiens, UniProt P51684); experiment: GPCR Profiler; type: cell-based
T14 construct: host or cells: Chem-1 cells with Gα15

GPR109A = target: T15, GPR109A (Homo sapiens, UniProt Q8TDS4); experiment: GPCR Profiler; type: cell-based
T15 construct: host or cells: Chem-1 cells expressing Gα15

GPR99 = target: T16, GPR99 (Homo sapiens, UniProt Q96P68); experiment: GPCR Profiler; type: cell-based
T16 construct: host or cells: Chem-1 cells with promiscuous Gα15

mGlu1 = target: T17, mGlu1 (Homo sapiens, UniProt Q13255); experiment: GPCR Profiler; type: cell-based
T17 construct: host or cells: Chem-1 cells expressing Gα15

Trypsin activated PARS = experiment: GPCR Profiler; type: cell-based

T14 sequence (P51684 whole entry): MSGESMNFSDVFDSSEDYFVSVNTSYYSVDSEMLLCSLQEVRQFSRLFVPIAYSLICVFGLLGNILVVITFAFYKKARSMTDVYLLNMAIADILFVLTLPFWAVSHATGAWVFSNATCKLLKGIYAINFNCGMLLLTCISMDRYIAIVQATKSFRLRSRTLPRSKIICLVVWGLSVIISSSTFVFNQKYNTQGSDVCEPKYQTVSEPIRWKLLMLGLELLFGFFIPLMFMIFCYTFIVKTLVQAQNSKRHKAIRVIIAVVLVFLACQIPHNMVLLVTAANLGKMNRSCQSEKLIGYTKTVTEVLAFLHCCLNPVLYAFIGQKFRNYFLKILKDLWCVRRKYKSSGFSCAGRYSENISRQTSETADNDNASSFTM
T17 sequence (Q13255 19-1194): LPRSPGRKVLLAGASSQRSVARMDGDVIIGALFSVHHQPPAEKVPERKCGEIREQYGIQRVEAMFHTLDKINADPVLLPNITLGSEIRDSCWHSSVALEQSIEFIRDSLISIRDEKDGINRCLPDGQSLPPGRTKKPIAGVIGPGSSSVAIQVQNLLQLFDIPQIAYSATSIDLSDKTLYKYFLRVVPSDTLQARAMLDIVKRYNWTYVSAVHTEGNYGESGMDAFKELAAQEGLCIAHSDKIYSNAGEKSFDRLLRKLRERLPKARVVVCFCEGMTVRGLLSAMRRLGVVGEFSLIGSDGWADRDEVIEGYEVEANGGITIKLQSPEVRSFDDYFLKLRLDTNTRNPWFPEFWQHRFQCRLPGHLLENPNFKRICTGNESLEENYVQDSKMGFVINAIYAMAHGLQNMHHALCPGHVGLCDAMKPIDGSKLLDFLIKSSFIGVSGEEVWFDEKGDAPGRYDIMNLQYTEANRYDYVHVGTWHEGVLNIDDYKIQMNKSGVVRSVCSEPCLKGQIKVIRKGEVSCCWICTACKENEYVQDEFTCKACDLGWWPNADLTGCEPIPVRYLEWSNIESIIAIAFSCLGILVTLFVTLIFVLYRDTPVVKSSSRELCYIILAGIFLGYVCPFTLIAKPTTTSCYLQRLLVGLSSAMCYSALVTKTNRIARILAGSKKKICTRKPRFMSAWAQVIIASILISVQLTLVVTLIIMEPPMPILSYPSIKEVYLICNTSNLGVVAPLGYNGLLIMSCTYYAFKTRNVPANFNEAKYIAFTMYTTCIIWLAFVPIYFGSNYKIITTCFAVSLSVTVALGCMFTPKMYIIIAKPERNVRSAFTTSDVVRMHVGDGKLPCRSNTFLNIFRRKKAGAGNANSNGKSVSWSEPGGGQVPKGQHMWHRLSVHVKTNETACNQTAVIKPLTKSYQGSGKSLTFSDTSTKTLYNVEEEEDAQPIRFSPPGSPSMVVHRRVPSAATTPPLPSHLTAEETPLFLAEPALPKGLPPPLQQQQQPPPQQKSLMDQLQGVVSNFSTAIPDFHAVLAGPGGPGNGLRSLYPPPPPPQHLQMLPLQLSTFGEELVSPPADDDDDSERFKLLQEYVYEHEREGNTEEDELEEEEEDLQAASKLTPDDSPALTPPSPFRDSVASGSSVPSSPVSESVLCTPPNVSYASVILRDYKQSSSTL
T15 sequence (Q8TDS4 whole entry): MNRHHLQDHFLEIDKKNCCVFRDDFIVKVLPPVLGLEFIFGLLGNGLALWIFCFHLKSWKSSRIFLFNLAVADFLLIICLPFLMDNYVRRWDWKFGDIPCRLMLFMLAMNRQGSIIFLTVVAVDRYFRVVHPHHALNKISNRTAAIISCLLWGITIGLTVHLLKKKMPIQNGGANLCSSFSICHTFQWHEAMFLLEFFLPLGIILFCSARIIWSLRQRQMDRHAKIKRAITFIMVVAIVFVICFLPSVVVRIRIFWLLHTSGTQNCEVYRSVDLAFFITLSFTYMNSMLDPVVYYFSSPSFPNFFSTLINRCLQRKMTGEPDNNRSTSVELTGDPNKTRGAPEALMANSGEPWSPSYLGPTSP
T12 sequence (P35348 whole entry): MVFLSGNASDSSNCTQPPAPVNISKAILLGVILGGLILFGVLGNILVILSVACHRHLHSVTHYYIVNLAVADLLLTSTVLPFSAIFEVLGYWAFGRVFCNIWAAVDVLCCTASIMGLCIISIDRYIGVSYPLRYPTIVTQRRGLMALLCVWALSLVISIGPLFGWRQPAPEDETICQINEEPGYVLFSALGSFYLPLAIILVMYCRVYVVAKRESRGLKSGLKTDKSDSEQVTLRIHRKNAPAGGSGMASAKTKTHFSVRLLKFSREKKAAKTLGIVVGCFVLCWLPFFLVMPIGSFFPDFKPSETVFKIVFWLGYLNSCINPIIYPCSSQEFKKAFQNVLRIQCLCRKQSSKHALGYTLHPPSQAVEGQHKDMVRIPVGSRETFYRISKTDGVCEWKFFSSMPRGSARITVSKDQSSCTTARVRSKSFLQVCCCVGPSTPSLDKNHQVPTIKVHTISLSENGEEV
T3 sequence (Q9H2X6 whole entry): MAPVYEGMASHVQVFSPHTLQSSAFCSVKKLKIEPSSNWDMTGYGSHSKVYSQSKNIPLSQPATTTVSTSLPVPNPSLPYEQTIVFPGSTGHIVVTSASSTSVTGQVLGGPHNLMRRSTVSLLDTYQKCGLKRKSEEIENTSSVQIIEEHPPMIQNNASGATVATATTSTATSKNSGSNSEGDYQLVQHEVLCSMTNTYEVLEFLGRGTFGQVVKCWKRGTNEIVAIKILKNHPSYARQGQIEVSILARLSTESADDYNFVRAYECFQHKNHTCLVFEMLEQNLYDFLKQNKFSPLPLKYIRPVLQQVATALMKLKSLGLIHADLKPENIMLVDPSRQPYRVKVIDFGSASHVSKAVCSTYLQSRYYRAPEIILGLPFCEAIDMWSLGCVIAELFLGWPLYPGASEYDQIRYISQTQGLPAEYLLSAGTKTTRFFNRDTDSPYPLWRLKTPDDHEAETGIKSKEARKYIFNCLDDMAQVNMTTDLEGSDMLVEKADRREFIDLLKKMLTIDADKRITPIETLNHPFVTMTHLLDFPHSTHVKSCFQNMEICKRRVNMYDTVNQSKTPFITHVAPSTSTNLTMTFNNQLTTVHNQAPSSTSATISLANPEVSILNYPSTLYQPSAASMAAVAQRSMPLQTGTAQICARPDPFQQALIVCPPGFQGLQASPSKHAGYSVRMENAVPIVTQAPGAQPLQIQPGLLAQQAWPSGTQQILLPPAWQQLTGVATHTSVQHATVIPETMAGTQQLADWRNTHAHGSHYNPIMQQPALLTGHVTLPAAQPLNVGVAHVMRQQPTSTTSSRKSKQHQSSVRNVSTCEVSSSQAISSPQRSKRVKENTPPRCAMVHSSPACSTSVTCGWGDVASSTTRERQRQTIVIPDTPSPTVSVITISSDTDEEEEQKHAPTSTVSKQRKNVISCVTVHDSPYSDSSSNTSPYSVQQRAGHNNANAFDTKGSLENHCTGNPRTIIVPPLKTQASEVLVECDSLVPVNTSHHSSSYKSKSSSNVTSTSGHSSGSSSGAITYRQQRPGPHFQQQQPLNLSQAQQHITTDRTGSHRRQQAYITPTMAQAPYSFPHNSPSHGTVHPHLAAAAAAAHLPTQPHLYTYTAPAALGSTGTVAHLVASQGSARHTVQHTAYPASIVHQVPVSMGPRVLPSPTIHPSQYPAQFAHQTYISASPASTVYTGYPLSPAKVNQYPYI
T1 sequence (Q00535 whole entry): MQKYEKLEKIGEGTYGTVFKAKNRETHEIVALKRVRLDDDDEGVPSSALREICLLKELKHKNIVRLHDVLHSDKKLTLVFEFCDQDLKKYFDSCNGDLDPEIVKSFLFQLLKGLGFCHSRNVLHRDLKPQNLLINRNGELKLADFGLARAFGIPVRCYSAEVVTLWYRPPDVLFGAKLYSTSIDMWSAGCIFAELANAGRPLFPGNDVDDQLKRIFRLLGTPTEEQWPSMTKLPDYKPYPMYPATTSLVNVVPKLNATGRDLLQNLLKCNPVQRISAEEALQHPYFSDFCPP
T11 sequence (Q13470 whole entry): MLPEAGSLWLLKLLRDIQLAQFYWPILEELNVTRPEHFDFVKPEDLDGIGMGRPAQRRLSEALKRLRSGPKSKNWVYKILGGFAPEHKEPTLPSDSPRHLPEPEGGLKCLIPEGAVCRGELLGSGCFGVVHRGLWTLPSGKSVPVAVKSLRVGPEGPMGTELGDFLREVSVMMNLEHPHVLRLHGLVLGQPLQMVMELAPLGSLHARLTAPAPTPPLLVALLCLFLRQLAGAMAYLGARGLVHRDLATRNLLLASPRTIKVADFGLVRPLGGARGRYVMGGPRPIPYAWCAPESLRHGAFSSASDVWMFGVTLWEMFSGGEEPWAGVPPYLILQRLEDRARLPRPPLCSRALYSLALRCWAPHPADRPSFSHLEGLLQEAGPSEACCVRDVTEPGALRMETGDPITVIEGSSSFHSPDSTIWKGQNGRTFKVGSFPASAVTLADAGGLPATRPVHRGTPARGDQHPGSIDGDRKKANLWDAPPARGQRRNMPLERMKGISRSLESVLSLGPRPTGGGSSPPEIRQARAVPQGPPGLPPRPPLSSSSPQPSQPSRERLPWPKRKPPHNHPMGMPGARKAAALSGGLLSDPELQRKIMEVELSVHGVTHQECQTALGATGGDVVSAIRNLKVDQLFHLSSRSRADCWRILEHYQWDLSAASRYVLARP

CCc1ccc2c(c1)C1(NN=C(c3ccccc3)S1)C(=O)N2 (stereo not drawn) [OGM2]
% Survival 2 μM OGM (HCT 116): 44.5%
% Survival 10 μM OGM (HCT 116): 32.7%
CC50 (HCT 116; Homo sapiens, HCT-116, read-out: LC50 (the source's name)): < 2 µM
Class (RKO): Mildly
% Survival 2 μM OGM (RKO; 72 hours): 92.4%
% Survival 10 μM OGM (RKO; 72 hours): 57.6%
CC50 (RKO; Homo sapiens, RKO, 72 hours, read-out: LC50 (the source's name)): > 10 µM
Class (RKO; Table 13): Low

CCc1ccc2c(c1)C1(NN=C(c3cccc4ccccc34)S1)C(=O)N2 (stereo not drawn) [OGM1, 5-ethyl-5′-naphthalen-1-ylspiro[1H-indole-3,2′-3H-1,3,4-thiadiazole]-2-one]
remaining binding at 10 µM (CDK5): 100%
remaining binding at 10 µM (DAPK3): 91%
remaining binding at 10 µM (HIPK2): 100%
remaining binding at 10 µM (LTK): 100%
remaining binding at 10 µM (MAP4K5): 100%
remaining binding at 10 µM (MLCK): 100%
remaining binding at 10 µM (PIM2): 84%
remaining binding at 10 µM (CDC2L5): 99%
remaining binding at 10 µM (PRP4): 100%
remaining binding at 10 µM (TLK1): 53%
remaining binding at 10 µM (TNK1): 100%
Antagonism (ADRA1A; 10 uM): 3
Agonism (ADRA1A; 12.5 uM): 1.9
Antagonism (CCR5; 10 uM): 15.8
Agonism (CCR5; 12.5 uM): 2.5
Antagonism (CCR6; 10 uM): 5.1
Agonism (CCR6; 12.5 uM): 1.5
Antagonism (GPR109A; 10 uM): 20.3
Agonism (GPR109A; 12.5 uM): −0.2
Antagonism (GPR99; 10 uM): 0.5
Agonism (GPR99; 12.5 uM): 6.5
Antagonism (mGlu1; 10 uM): −12.7
Agonism (mGlu1; 12.5 uM): 1.1
Antagonism (Trypsin activated PARS; 10 uM): 18.2
Agonism (Trypsin activated PARS; 12.5 uM): 0
